Data reported in patent US12514938B2, “Fibroblast activation protein targeting peptides” (PERSPECTIVE THERAPEUTICS, INC., priority 2023, dated 2026).
*1 amine or outer side, *2 acyl side, *3 side chain or, on linkers, in order; H or OH if unused. Where a SMILES comes first, the peptide text is derived from it. Bridges are numbered along the chain shown (N, C = ends). [ ]: non-standard residue; d: D form. The star is where a group is joined. X2 = NC(=O)CN1CCN(CC(=O)O)CCN(CC(=O)NCCOCCOCCC(=O)NCCSCc2cc(C[*:1])cc(C[*:2])c2)CCN(CC(=O)O)CC1; X1 = NC(=O)CN1CCN(CC(=O)O)CCN(CC(=O)*)CCN(CC(=O)O)CC1; 1Nal = N[C@@H](Cc1cccc2ccccc12)C(=O)O; 2Nal = N[C@@H](Cc1ccc2ccccc2c1)C(=O)O; mXylylene = c1cc(C[*:1])cc(C[*:2])c1; oXylylene = c1ccc(C[*:2])c(C[*:1])c1; Bta = N[C@@H](Cc1csc2ccccc12)C(=O)O; 3Pal = N[C@@H](Cc1cccnc1)C(=O)O; PEG3 = NCCOCCOCCOCCC(=O)O; PEG2 = NCCOCCOCCC(=O)O; Butyryl = CCCC(=O)*; PEG1 = NCCOCCC(=O)O

Biological target: T1, Human Fibroblast Activation Protein (FAP) (Homo sapiens, UniProt Q12884)
T1 sequence (Q12884 1-760): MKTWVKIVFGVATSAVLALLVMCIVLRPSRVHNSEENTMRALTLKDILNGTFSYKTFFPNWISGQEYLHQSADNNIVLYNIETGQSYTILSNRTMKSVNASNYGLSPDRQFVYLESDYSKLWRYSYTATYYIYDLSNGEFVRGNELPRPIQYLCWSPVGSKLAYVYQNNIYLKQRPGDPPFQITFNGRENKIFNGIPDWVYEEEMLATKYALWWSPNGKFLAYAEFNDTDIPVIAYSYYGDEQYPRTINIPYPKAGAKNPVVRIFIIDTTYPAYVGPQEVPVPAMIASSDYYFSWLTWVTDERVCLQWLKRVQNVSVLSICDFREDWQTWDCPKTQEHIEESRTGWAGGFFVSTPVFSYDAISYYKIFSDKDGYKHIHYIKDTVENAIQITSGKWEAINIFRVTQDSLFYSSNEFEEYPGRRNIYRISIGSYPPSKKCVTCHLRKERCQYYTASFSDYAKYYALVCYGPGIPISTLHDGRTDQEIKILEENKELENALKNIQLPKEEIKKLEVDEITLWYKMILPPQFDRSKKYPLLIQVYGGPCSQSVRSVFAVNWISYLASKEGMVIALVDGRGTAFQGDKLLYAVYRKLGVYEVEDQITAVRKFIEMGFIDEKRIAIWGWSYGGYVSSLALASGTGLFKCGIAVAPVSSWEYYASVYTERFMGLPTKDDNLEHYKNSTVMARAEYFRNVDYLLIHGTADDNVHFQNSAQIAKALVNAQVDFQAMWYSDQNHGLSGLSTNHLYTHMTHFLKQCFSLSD
Assay: Enzyme inhibition assay against human FAP (substrate Z-GP-AMC), Example 1
Assay type: biochemical
Details: human FAP 5 ng/well, 50 μM Z-GP-AMC; Ki from IC50 by Cheng-Prusoff
Protocol: Binding Affinity Against Human Fibroblast Activation Protein (FAP)
An enzyme inhibition assay was performed to determine IC50 values and then the Cheng-Prusoff equation used to calculate the Ki given a known Km of the substrate Z-GP-AMC for FAP. To perform the assay, FAP (5 ng/well) and the test peptide at varying concentrations (i.e. 10^−6 to 10^−12) were incubated in a black 96-well plate for 10 minutes at RT on a shaker plate. Then, the substrate Z-GP-AMC was added to give a final concentration of 50 μM. The total reaction volume per well was 100 μL The reaction was allowed to incubate at RT on a shaker plate for 1 hour protected from light, and then fluorescence read with a BioTek Synergy LX plate reader at an ex/em (360/40 and 460/40). Experiments were performed in at least duplicate, and controls of buffer only, buffer and FAP enzyme, and buffer with substrate and FAP enzyme only were included for comparison. The buffer used for the assay was 50 mM Tris-HCl, 1M NaCl, and 1 mg/mL BSA, pH=7.5. Data was plotted in GraphPad Prism and non-linear regression used to calculate IC50 values. The compounds tested and Ki values of each were as follows: […]

| Ki [nM] | SMILES |
| --- | --- |
| 0.3 | C[C@@H](O)[C@@H]1NC(=O)[C@@H](NC(=O)[C@H](CO)NC(=O)CCOCCOCCNC(=O)CN2CCN(CC(=O)O)CCN(CC(N)=O)CCN(CC(=O)O)CC2)CSCc2ccccc2CSC[C@@H](C(N)=O)NC(=O)[C@H](Cc2c[nH]c3ccccc23)NC(=O)[C@H](Cc2c[nH]c3ccccc23)NC(=O)[C@H](CCC(N)=O)NC(=O)[C@H](CCC(=O)O)NC(=O)[C@H](Cc2csc3ccccc23)NC(=O)[C@@H]2CCCN2C1=O [VMT-FAP-2-61, PCS-PEG2-S-[C(oXdB)TPBtaEQWWC]-NH2] ({X1-PEG2}-SCTP[Bta]EQWWC-NH2; linker 2-10 via oXylylene) |
| 0.61 | C[C@@H](O)[C@@H]1NC(=O)[C@@H](NC(=O)[C@H](CO)NC(=O)CCOCCOCCNC(=O)CN2CCN(CC(=O)O)CCN(CC(N)=O)CCN(CC(=O)O)CC2)CSCc2ccccc2CSC[C@@H](C(N)=O)NC(=O)[C@H](Cc2c[nH]c3ccccc23)NC(=O)[C@H](Cc2c[nH]c3ccccc23)NC(=O)[C@H](CCC(N)=O)NC(=O)[C@H](CCC(=O)O)NC(=O)[C@H](Cc2cccnc2)NC(=O)[C@@H]2CCCN2C1=O [VMT-FAP-2-62, PCS-PEG2-S-[C(oXdB)TP3-PalEQWWC]-NH2] ({X1-PEG2}-SCTP[3Pal]EQWWC-NH2; linker 2-10 via oXylylene) |
| 0.08 | C[C@@H](O)[C@@H]1NC(=O)[C@@H](NC(=O)CCOCCNC(=O)CN2CCN(CC(=O)O)CCN(CC(N)=O)CCN(CC(=O)O)CC2)CSCc2ccccc2CSC[C@@H](C(N)=O)NC(=O)[C@H](Cc2c[nH]c3ccccc23)NC(=O)[C@H](Cc2c[nH]c3ccccc23)NC(=O)[C@H](CCC(N)=O)NC(=O)[C@H](CCC(=O)O)NC(=O)[C@H](Cc2c[nH]c3ccccc23)NC(=O)[C@@H]2CCCN2C1=O [VMT-FAP-2-67, PSC-PEG1-[C(oXdB)TPWEQWWC]-NH2] ({X1-PEG1}-CTPWEQWWC-NH2; linker 1-9 via oXylylene) |
| 0.64 | C[C@@H](O)[C@@H]1NC(=O)[C@@H](NC(=O)CCOCCOCCOCCNC(=O)CN2CCN(CC(=O)O)CCN(CC(N)=O)CCN(CC(=O)O)CC2)CSCc2ccccc2CSC[C@@H](C(N)=O)NC(=O)[C@H](Cc2c[nH]c3ccccc23)NC(=O)[C@H](Cc2c[nH]c3ccccc23)NC(=O)[C@H](CCC(N)=O)NC(=O)[C@H](CCC(=O)O)NC(=O)[C@H](Cc2c[nH]c3ccccc23)NC(=O)[C@@H]2CCCN2C1=O [VMT-FAP-2-68, PSC-PEG3-[C(oXdB)TPWEQWWC]-NH2] ({X1-PEG3}-CTPWEQWWC-NH2; linker 1-9 via oXylylene) |

The remaining lines, values behind:

| SMILES | Ki [nM] |
| --- | --- |
| C[C@@H](O)[C@@H]1NC(=O)[C@@H](NC(=O)[C@H](CO)NC(=O)CCOCCOCCNC(=O)CN2CCN(CC(=O)O)CCN(CC(N)=O)CCN(CC(=O)O)CC2)CSCc2ccccc2CSC[C@@H](C(N)=O)NC(=O)[C@H](Cc2c[nH]c3ccccc23)NC(=O)[C@H](Cc2c[nH]c3ccccc23)NC(=O)[C@H](CCC(N)=O)NC(=O)[C@H](CCC(=O)O)NC(=O)[C@H](Cc2c[nH]c3ccccc23)NC(=O)[C@@H]2CCCN2C1=O [VMT-FAP-2-42, PSC-PEG2-S-[C(oXdB)TPWEQWWC]-NH2] ({X1-PEG2}-SCTPWEQWWC-NH2; linker 2-10 via oXylylene) | 0.29 |
| C[C@@H](O)[C@@H]1NC(=O)[C@@H](NC(=O)[C@H](CO)NC(=O)CCOCCOCCNC(=O)CN2CCN(CC(=O)O)CCN(CC(N)=O)CCN(CC(=O)O)CC2)CSCc2ccccc2CSC[C@@H](C(N)=O)NC(=O)[C@H](Cc2c[nH]c3ccccc23)NC(=O)[C@H](Cc2c[nH]c3ccccc23)NC(=O)[C@H](CCC(=O)O)NC(=O)[C@H](CCC(=O)O)NC(=O)[C@H](Cc2ccccc2)NC(=O)[C@@H]2CCCN2C1=O [VMT-FAP-2-43, PSC-PEG2-S-[C(oXdB)TPFEEWWC]-NH2] ({X1-PEG2}-SCTPFEEWWC-NH2; linker 2-10 via oXylylene) | 0.07 |
| C[C@@H](O)[C@@H]1NC(=O)[C@@H](NC(=O)[C@H](CO)NC(=O)CCOCCOCCNC(=O)CN2CCN(CC(=O)O)CCN(CC(N)=O)CCN(CC(=O)O)CC2)CSCc2cccc(c2)CSC[C@@H](C(N)=O)NC(=O)[C@H](Cc2c[nH]c3ccccc23)NC(=O)[C@H](Cc2c[nH]c3ccccc23)NC(=O)[C@H](CCC(N)=O)NC(=O)[C@H](CCC(=O)O)NC(=O)[C@H](Cc2c[nH]c3ccccc23)NC(=O)[C@@H]2CCCN2C1=O [VMT-FAP-2-48, PSC-PEG2-S-[C(mXdB)TPWEQWWC]-NH2] ({X1-PEG2}-SCTPWEQWWC-NH2; linker 2-10 via mXylylene) | 0.35 |
| CC(=O)N[C@H]1CSCc2cc(CSCCNC(=O)CCOCCOCCNC(=O)CN3CCN(CC(=O)O)CCN(CC(N)=O)CCN(CC(=O)O)CC3)cc(c2)CSC[C@@H](C(N)=O)NC(=O)[C@H](Cc2c[nH]c3ccccc23)NC(=O)[C@H](Cc2c[nH]c3ccccc23)NC(=O)[C@H](CCC(N)=O)NC(=O)[C@H](CCC(=O)O)NC(=O)[C@H](Cc2c[nH]c3ccccc23)NC(=O)[C@@H]2CCCN2C(=O)[C@H]([C@@H](C)O)NC1=O [VMT-FAP-2-51, Ac-[C(mXtB(CA-PEG2-PSC))TPWEQWWC]-NH2] (Ac-CTPWEQWWC-NH2; linker 1-9 via X2) | 0.28 |
| C[C@@H](O)[C@@H]1NC(=O)[C@@H](NC(=O)[C@H](CO)NC(=O)CCOCCOCCNC(=O)CN2CCN(CC(=O)O)CCN(CC(N)=O)CCN(CC(=O)O)CC2)CSCc2ccccc2CSC[C@@H](C(N)=O)NC(=O)[C@H](Cc2c[nH]c3ccccc23)NC(=O)[C@H](Cc2c[nH]c3ccccc23)NC(=O)[C@H](CCC(N)=O)NC(=O)[C@H](CCC(=O)O)NC(=O)[C@H](Cc2ccc3ccccc3c2)NC(=O)[C@@H]2CCCN2C1=O [VMT-FAP-2-53, PSC-PEG2-[SC(oXdB)TP2-NalEQWWC]-NH2] ({X1-PEG2}-SCTP[2Nal]EQWWC-NH2; linker 2-10 via oXylylene) | 0.34 |
| CC(=O)N[C@@H](CO)C(=O)N[C@H]1CSCc2cc(CSCCNC(=O)CCOCCOCCNC(=O)CN3CCN(CC(=O)O)CCN(CC(N)=O)CCN(CC(=O)O)CC3)cc(c2)CSC[C@@H](C(N)=O)NC(=O)[C@H](Cc2c[nH]c3ccccc23)NC(=O)[C@H](Cc2c[nH]c3ccccc23)NC(=O)[C@H](CCC(N)=O)NC(=O)[C@H](CCC(=O)O)NC(=O)[C@H](Cc2c[nH]c3ccccc23)NC(=O)[C@@H]2CCCN2C(=O)[C@H]([C@@H](C)O)NC1=O [VMT-FAP-2-55, Ac-S-[C(mXtB(CA-PEG2-PSC))TPWEQWWC]-NH2] (Ac-SCTPWEQWWC-NH2; linker 2-10 via X2) | 1.12 |
| CCCC(=O)N[C@H]1CSCc2cc(CSCCNC(=O)CCOCCOCCNC(=O)CN3CCN(CC(=O)O)CCN(CC(N)=O)CCN(CC(=O)O)CC3)cc(c2)CSC[C@@H](C(N)=O)NC(=O)[C@H](Cc2c[nH]c3ccccc23)NC(=O)[C@H](Cc2c[nH]c3ccccc23)NC(=O)[C@H](CCC(N)=O)NC(=O)[C@H](CCC(=O)O)NC(=O)[C@H](Cc2c[nH]c3ccccc23)NC(=O)[C@@H]2CCCN2C(=O)[C@H]([C@@H](C)O)NC1=O [VMT-FAP-2-57, But-[C(mXtB(CA-PEG2-PSC))TPWEQWWC]-NH2] (Butyryl-CTPWEQWWC-NH2; linker 1-9 via X2) | 0.71 |
| C[C@@H](O)[C@@H]1NC(=O)[C@@H](NC(=O)[C@H](CO)NC(=O)CCOCCOCCNC(=O)CN2CCN(CC(=O)O)CCN(CC(N)=O)CCN(CC(=O)O)CC2)CSCc2ccccc2CSC[C@@H](C(N)=O)NC(=O)[C@H](Cc2c[nH]c3ccccc23)NC(=O)[C@H](Cc2c[nH]c3ccccc23)NC(=O)[C@H](CCC(N)=O)NC(=O)[C@H](CCC(=O)O)NC(=O)[C@H](Cc2cccc3ccccc23)NC(=O)[C@@H]2CCCN2C1=O [VMT-FAP-2-60, PSC-PEG2-S-[C(oXdB)TP1-NalEQWWC]-NH2] ({X1-PEG2}-SCTP[1Nal]EQWWC-NH2; linker 2-10 via oXylylene) | 0.48 |
